From ChEMBL document CHEMBL3612065, “Development of N-hydroxybenzamide derivatives with indole-containing cap group as histone deacetylases inhibitors” (Bioorg Med Chem, 2015)

Assays:
[1] = Inhibition of Class 1 histone deacetylase isolated from human HeLa cell nuclear extracts using Boc-Lys (acetyl)-AMC as substrate preincubated for 10 mins followed by substrate addition measured after 30 mins by fluorescence assay; assay type: cell-based
HEL = assay: Cytotoxicity against human HEL cells assessed as growth inhibition after 48 hrs by MTT assay; assay type: functional, cell-based
[2] = Cytotoxicity against human U266 cells assessed as growth inhibition after 48 hrs by MTT assay; assay type: functional, cell-based; settings: U-266, 48 h
HeLa [3] = assay: Ratio of IC50 for Class 1 histone deacetylase in human PC3 cells to IC50 for Class 1 histone deacetylase isolated from human HeLa cell nuclear extracts
HCT-116 = assay: Cytotoxicity against human HCT116 cells assessed as growth inhibition after 48 hrs by MTT assay; assay type: functional, cell-based; settings: HCT-116, 48 h
PC-3 [4] = assay: Inhibition of Class 1 histone deacetylase in human PC3 cells using Boc-Lys (acetyl)-AMC as substrate preincubated for 3 hrs followed by substrate addition measured after 3 hrs by fluorescence assay; assay type: cell-based
PC-3 [5] = assay: Selectivity ratio of IC50 for Class 2a histone deacetylase in human PC3 to IC50 for Class 1 histone deacetylase in human PC3 cells; assay type: cell-based
PC-3 [6] = assay: Inhibition of Class 2a histone deacetylase in human PC3 cells using Boc-Lys (triflouroacetyl)-AMC as substrate preincubated for 3 hrs followed by substrate addition measured after 3 hrs by fluorescence assay; assay type: cell-based
K562 = assay: Cytotoxicity against human K562 cells assessed as growth inhibition after 48 hrs by MTT assay; assay type: functional, cell-based; settings: K562, 48 h
PC-3 [7] = assay: Cytotoxicity against human PC3 cells assessed as growth inhibition after 48 hrs by MTT assay; assay type: functional, cell-based; settings: PC-3, 48 h
U-937 = assay: Cytotoxicity against human U937 cells assessed as growth inhibition after 48 hrs by MTT assay; assay type: functional, cell-based; settings: U-937, 48 h
HeLa [8] = assay: Potency index, ratio of SAHA IC50 to compound IC50 for Class 1 histone deacetylase isolated from human HeLa cell nuclear extracts; assay type: cell-based

SMILES	IC50 [1]	other results
O=C(/C=C/c1ccc(OC[C@H](Cc2c[nH]c3ccccc23)NC(=O)c2ccc(Cl)cc2)cc1)NO	6.8 nM	–
CC(C)=CC(=O)N[C@@H](Cc1c[nH]c2ccccc12)C(=O)Nc1ccc(C(=O)NO)cc1	139 nM	–
COc1ccc(C(=O)N[C@@H](Cc2c[nH]c3ccccc23)C(=O)Nc2ccc(C(=O)NO)cc2)cc1	8.6 nM	–
CCCC(CCC)C(=O)N[C@@H](Cc1c[nH]c2ccccc12)C(=O)Nc1ccc(C(=O)NO)cc1	212 nM	–
COc1cc(CCC(=O)Nc2ccc(C(=O)NO)cc2)ccc1OCc1cccs1	192 nM	–
CCS(=O)(=O)N[C@@H](Cc1c[nH]c2ccccc12)C(=O)Nc1ccc(C(=O)NO)cc1	1090 nM	–
O=C(NO)c1ccc(NC(=O)[C@H](Cc2c[nH]c3ccccc23)NC(=O)c2ccc(Cl)cc2Cl)cc1	23.3 nM	–
CC(C)C(=O)N[C@@H](Cc1c[nH]c2ccccc12)C(=O)Nc1ccc(C(=O)NO)cc1	526 nM	–
CC(C)(C)OC(=O)N[C@@H](Cc1c[nH]c2ccccc12)C(=O)Nc1ccc(C(=O)NO)cc1	280 nM	–
Cc1ccc(C(=O)N[C@@H](Cc2c[nH]c3ccccc23)C(=O)Nc2ccc(C(=O)NO)cc2)cc1	13 nM	–
O=C(NO)c1ccc(NC(=O)[C@H](Cc2c[nH]c3ccccc23)NC(=O)c2cc(Cl)cc(Cl)c2)cc1	41.2 nM	–
Cc1ccc(S(=O)(=O)N[C@@H](Cc2c[nH]c3ccccc23)C(=O)Nc2ccc(C(=O)NO)cc2)cc1	196 nM	–
CCC(CC)C(=O)N[C@@H](Cc1c[nH]c2ccccc12)C(=O)Nc1ccc(C(=O)NO)cc1	333 nM	–
O=C(NO)c1ccc(NC(=O)[C@H](Cc2c[nH]c3ccccc23)NC(=O)c2ccc(F)cc2)cc1	2.4 nM	–
O=C(NO)c1ccc(NC(=O)[C@H](Cc2c[nH]c3ccccc23)NC(=O)c2ccc(C(F)(F)F)cc2)cc1	30 nM	–
CN(C)c1ccc(C(=O)N[C@@H](Cc2c[nH]c3ccccc23)C(=O)Nc2ccc(C(=O)NO)cc2)cc1	4.7 nM	–
CC(C)(C)OC(=O)N[C@H](C(=O)Nc1ccc(C(=O)NO)cc1)c1ccccc1	123 nM	–
CC(=O)N[C@@H](Cc1c[nH]c2ccccc12)C(=O)Nc1ccc(C(=O)NO)cc1	425 nM	–
O=C(NO)c1ccc(NC(=O)[C@H](Cc2c[nH]c3ccccc23)NC(=O)c2ccc(Br)cc2)cc1	3.7 nM	–
O=C(NO)c1ccc(NC(=O)[C@H](Cc2c[nH]c3ccccc23)NC(=O)c2ccc(Cl)cc2)cc1	1.5 nM	IC50 (HEL): 1970 nM; IC50 [2]: 1010 nM; Ratio IC50 (HeLa [3]): 22; IC50 (HCT-116): 1450 nM; IC50 (PC-3 [4]): 33.2 nM; Ratio IC50 (HeLa [8]): 100; Ratio IC50 (PC-3 [5]): 2; IC50 (PC-3 [6]): 60.1 nM; IC50 (K562): 1670 nM; IC50 (PC-3 [7]): 740 nM; IC50 (U-937): 1090 nM

Now from value to compound, other results behind:

IC50 [1]	SMILES	other results
100 nM	O=C(NO)c1ccc(NC(=O)[C@H](Cc2c[nH]c3ccccc23)NC(=O)c2ccncc2)cc1	–
178 nM	O=C(NO)c1ccc(NC(=O)[C@H](Cc2c[nH]c3ccccc23)NS(=O)(=O)c2ccccc2)cc1	–
98.7 nM	O=C(CCCc1ccccc1)N[C@@H](Cc1c[nH]c2ccccc12)C(=O)Nc1ccc(C(=O)NO)cc1	–
43.1 nM	O=C(NO)c1ccc(NC(=O)[C@H](Cc2c[nH]c3ccccc23)NC(=O)c2cccc(Cl)c2)cc1	–
31 nM	O=C(NO)c1ccc(NC(=O)[C@H](Cc2c[nH]c3ccccc23)NC(=O)c2ccco2)cc1	IC50 (HEL): 3360 nM; IC50 [2]: 3760 nM; Ratio IC50 (HeLa [3]): 11; IC50 (HCT-116): 2770 nM; IC50 (PC-3 [4]): 333 nM; Ratio IC50 (PC-3 [5]): 2; IC50 (PC-3 [6]): 665 nM; IC50 (K562): 4560 nM; IC50 (PC-3 [7]): 3340 nM; IC50 (U-937): 3430 nM
27 nM	O=C(NO)c1ccc(NC(=O)[C@H](Cc2c[nH]c3ccccc23)NC(=O)c2ccc3ccccc3c2)cc1	–
157 nM	O=C(NO)c1ccc(NC(=O)[C@H](Cc2c[nH]c3ccccc23)NC(=O)c2ccccc2Cl)cc1	–
59.7 nM	O=C(CCc1ccccc1)N[C@@H](Cc1c[nH]c2ccccc12)C(=O)Nc1ccc(C(=O)NO)cc1	–
47.5 nM	O=C(Cc1ccccc1)N[C@@H](Cc1c[nH]c2ccccc12)C(=O)Nc1ccc(C(=O)NO)cc1	–
23.8 nM	O=C(NO)c1ccc(NC(=O)[C@H](Cc2c[nH]c3ccccc23)NC(=O)c2ccccc2)cc1	–
